Measurements as given in paper doi:10.1101/2025.10.14.682402v1 (biorxiv, 2025).

Columns and labels:
ULK2 [1] = target: T1, ULK2 (Homo sapiens, UniProt Q8IYT8); test: ADP-Glo kinase assay; assay type: biochemical
T1 sequence (Q8IYT8 1-1036): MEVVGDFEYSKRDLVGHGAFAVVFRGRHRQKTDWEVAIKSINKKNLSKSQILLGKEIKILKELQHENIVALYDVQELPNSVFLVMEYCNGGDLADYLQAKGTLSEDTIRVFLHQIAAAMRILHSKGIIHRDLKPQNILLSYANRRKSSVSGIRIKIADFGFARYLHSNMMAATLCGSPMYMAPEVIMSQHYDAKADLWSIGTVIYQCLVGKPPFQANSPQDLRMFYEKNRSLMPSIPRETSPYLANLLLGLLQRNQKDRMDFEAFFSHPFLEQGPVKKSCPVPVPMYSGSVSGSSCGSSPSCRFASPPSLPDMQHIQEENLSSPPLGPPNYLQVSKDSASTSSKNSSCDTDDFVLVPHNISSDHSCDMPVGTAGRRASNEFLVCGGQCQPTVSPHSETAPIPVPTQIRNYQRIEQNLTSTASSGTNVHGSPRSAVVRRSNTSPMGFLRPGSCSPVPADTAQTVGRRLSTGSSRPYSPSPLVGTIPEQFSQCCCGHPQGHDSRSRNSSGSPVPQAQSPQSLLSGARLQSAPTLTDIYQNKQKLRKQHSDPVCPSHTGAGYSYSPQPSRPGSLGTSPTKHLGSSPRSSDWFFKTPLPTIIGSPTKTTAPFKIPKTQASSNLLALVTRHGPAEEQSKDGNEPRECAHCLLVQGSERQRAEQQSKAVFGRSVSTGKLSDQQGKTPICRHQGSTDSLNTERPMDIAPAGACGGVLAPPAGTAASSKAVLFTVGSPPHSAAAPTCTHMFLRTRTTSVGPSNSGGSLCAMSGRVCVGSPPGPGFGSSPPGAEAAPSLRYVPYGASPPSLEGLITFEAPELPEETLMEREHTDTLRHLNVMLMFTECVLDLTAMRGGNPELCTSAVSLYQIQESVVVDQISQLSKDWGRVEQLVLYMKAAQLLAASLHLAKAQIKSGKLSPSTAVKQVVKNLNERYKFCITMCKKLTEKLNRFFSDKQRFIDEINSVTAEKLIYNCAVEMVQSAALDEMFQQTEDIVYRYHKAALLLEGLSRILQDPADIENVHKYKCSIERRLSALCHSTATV

ULK1 [2] = target: T2, ULK1 (Homo sapiens, UniProt O75385); test: ADP-Glo kinase assay; assay type: biochemical
T2 sequence (O75385 1-1050): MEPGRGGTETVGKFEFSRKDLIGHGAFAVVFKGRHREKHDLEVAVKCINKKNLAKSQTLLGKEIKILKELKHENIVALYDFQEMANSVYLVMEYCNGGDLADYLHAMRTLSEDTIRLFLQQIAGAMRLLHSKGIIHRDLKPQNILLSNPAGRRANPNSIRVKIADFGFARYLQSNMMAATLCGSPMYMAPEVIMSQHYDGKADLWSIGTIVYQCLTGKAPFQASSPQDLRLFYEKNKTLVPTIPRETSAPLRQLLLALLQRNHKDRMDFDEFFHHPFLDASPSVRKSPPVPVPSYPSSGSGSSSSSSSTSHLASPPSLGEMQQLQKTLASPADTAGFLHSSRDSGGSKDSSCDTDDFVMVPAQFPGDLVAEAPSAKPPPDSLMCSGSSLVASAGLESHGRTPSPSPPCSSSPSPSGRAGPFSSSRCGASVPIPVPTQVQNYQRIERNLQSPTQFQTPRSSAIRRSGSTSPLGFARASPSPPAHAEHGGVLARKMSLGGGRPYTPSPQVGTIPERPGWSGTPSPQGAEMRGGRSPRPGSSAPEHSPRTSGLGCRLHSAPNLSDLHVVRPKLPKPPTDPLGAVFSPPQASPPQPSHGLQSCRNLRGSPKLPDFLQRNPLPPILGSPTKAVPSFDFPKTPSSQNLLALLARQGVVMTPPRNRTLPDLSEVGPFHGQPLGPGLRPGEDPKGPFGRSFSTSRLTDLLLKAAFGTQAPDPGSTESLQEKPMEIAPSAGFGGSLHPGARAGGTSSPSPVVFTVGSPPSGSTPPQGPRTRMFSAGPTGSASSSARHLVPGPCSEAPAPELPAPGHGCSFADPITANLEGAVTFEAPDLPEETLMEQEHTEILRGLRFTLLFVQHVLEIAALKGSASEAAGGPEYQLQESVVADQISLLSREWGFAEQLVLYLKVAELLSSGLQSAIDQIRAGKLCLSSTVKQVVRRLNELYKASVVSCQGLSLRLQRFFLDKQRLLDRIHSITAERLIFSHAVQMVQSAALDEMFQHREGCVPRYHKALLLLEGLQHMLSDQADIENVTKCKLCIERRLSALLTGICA

kinase domain of ULK1 = target: T3, kinase domain of ULK1 (Homo sapiens, UniProt O75385); details: binder
T3 sequence (O75385 1-283 limits assumed): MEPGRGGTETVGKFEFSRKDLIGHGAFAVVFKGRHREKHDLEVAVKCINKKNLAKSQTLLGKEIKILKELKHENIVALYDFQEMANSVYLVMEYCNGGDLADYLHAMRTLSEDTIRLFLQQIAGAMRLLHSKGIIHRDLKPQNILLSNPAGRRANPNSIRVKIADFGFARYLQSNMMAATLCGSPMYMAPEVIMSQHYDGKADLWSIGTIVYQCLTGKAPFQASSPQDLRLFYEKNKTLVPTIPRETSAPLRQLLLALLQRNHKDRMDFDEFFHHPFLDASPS

kinase domain of ULK2 = target: T4, kinase domain of ULK2 (Homo sapiens, UniProt Q8IYT8); details: binder
T4 sequence (Q8IYT8 1-276 limits assumed): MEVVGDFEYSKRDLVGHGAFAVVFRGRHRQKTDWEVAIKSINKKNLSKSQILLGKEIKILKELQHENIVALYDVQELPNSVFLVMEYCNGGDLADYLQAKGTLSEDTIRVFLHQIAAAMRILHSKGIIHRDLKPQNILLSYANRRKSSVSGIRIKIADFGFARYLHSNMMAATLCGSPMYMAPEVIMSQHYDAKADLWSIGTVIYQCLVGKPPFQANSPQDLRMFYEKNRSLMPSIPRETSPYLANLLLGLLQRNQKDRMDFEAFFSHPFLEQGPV

ULK1 (NanoBRET) = target: T5, ULK1 (NanoBRET) (Homo sapiens, UniProt O75385); test: NanoBRET cellular target engagement; assay type: cell-based
T5 sequence (O75385 1-1050): T2 sequence (O75385 1-1050)

ULK1 [3] = target: T2, ULK1; test: biochemical
ULK2 [4] = target: T1, ULK2; test: biochemical

Row | IC50 (ULK2 [1]) | IC50 (ULK1 [2]) | ULK1 PTS (ºC) (kinase domain of ULK1) | ULK2 PTS (ºC) (kinase domain of ULK2) | IC50 (ULK1 (NanoBRET)) | IC50 (ULK1 [3]) | IC50 (ULK2 [4]) | SMILES
1 | > 3000 nM | 153 nM | 3.65 ± 0.07 °C | 2.31 ± 0.09 °C |  |  |  | CNC(=O)c1ccccc1Nc1nc(Nc2ccc(N3CCOCC3)cc2OC)ncc1Cl [6a, 2-(5-Chloro-2-(2-methoxy-4-morpholinophenylamino)pyrimidin-4-ylamino)-N-methylbenzamide]
2 | 172 nM |  | 7.70 ± 0.43 °C | 3.73 ± 0.81 °C | 103 nM | 8 ± 2 nM |  | CNC(=O)c1ccccc1Nc1nc(Nc2ccc3c(c2)CCC(=O)N3)ncc1C(F)(F)F [6d, N-Methyl-2-(2-(2-oxo-1,2,3,4-tetrahydroquinolin-6-ylamino)-5-(trifluoromethyl)pyrimidin-4-ylamino)benzamide]
3 | 1440 nM | 22 nM | 0.15 ± 0.06 °C | 0.43 ± 0.34 °C |  |  |  | CNC(=O)c1ccccc1Nc1nc(Nc2ccc3c(c2)CCC(=O)N3)ncc1Cl [6e, 2-(5-Chloro-2-(2-oxo-1,2,3,4-tetrahydroquinolin-6-ylamino)pyrimidin-4-ylamino)-N-methylbenzamide]
4 | 7 nM | 10 nM | 16.50 ± 0.15 °C | 15.81 ± 0.06 °C | 10 nM |  |  | CNC(=O)c1ccccc1Nc1nc(Nc2cc(OC)c(OC)c(OC)c2)ncc1C(F)(F)F [6p, N-Methyl-2-(5-(trifluoromethyl)-2-(3,4,5-trimethoxyphenylamino)pyrimidin-4-ylamino)benzamide]
5 | 30000 nM | 603 nM | 5.18 ± 0.17 °C | 2.71 ± 0.09 °C |  |  | > 3000 nM | CNC(=O)c1ccccc1Nc1ccnc(Nc2cc(OC)c(OC)c(OC)c2)n1 [6q, N-Methyl-2-(2-(3,4,5-trimethoxyphenylamino)pyrimidin-4-ylamino)benzamide]
